Literature values in article PMC8287861 (Frontiers in Microbiology, 2021).
Values after ≈ are worked out from the molar mass of the structure shown. Where two headings read alike, the source gives them in different places.

Tests used:
PAM4883 GIM-1 = system: PAM4883 GIM-1; design: method as in Lomovskaya et al. (2020b); settings: PAM4883, GIM-1, class B1; ref Lomovskaya et al. (2020b)
PAM4910 VEB-2 = system: PAM4910 VEB-2; design: method as in Lomovskaya et al. (2020b); settings: PAM4910, VEB-2, class A; ref Lomovskaya et al. (2020b)
PAM4198 IMP-15 = system: PAM4198 IMP-15; design: method as in Lomovskaya et al. (2020b); settings: PAM4198, IMP-15, class B1; ref Lomovskaya et al. (2020b)
PAM4874 SHV-12 = system: PAM4874 SHV-12; design: method as in Lomovskaya et al. (2020b); settings: PAM4874, SHV-12, class A; ref Lomovskaya et al. (2020b)
PAM4676 BKC-1 = system: PAM4676 BKC-1; design: method as in Lomovskaya et al. (2020b); settings: PAM4676, BKC-1, class A-CARB; ref Lomovskaya et al. (2020b)
PAM4884 ADC-181 = system: PAM4884 ADC-181; design: method as in Lomovskaya et al. (2020b); settings: PAM4884, ADC-181, class C; ref Lomovskaya et al. (2020b)
PAM4822 CTX-M-27 = system: PAM4822 CTX-M-27; design: method as in Lomovskaya et al. (2020b); settings: PAM4822, CTX-M-27, class A; ref Lomovskaya et al. (2020b)
PAM4878 TEM-10 = system: PAM4878 TEM-10; design: method as in Lomovskaya et al. (2020b); settings: PAM4878, TEM-10, class A; ref Lomovskaya et al. (2020b)
PAM4689 KPC-3 = system: PAM4689 KPC-3; design: method as in Lomovskaya et al. (2020b); settings: PAM4689, KPC-3, class A-CARB; ref Lomovskaya et al. (2020b)
PAM4798 VIM-2 = system: PAM4798 VIM-2; design: method as in Lomovskaya et al. (2020b); settings: PAM4798, VIM-2, class B1; ref Lomovskaya et al. (2020b)
PAM4881 VIM-7 = system: PAM4881 VIM-7; design: method as in Lomovskaya et al. (2020b); settings: PAM4881, VIM-7, class B1; ref Lomovskaya et al. (2020b)
PAM4745 P99 = system: PAM4745 P99; design: method as in Lomovskaya et al. (2020b); settings: PAM4745, P99, class C; ref Lomovskaya et al. (2020b)
PAM4800 GES-19 = system: PAM4800 GES-19; design: method as in Lomovskaya et al. (2020b); settings: PAM4800, GES-19, class A; ref Lomovskaya et al. (2020b)
PAM4846 OXA-9 = system: PAM4846 OXA-9; design: method as in Lomovskaya et al. (2020b); settings: PAM4846, OXA-9, class D; ref Lomovskaya et al. (2020b)
PAM4885 SPM-1 = system: PAM4885 SPM-1; design: method as in Lomovskaya et al. (2020b); settings: PAM4885, SPM-1, class B1; ref Lomovskaya et al. (2020b)
PAM4938 VEB-9 = system: PAM4938 VEB-9; design: method as in Lomovskaya et al. (2020b); settings: PAM4938, VEB-9, class A; ref Lomovskaya et al. (2020b)
PAM4825 MIR-1 = system: PAM4825 MIR-1; design: method as in Lomovskaya et al. (2020b); settings: PAM4825, MIR-1, class C; ref Lomovskaya et al. (2020b)
PAM4869 PDC-1 = system: PAM4869 PDC-1; design: method as in Lomovskaya et al. (2020b); settings: PAM4869, PDC-1, class C; ref Lomovskaya et al. (2020b)
PAM4179 NDM-1 = system: PAM4179 NDM-1; design: method as in Lomovskaya et al. (2020b); settings: PAM4179, NDM-1, class B1; ref Lomovskaya et al. (2020b)
PAM4217 OXA-48 = system: PAM4217 OXA-48; design: method as in Lomovskaya et al. (2020b); settings: PAM4217, OXA-48, class D-CARB; ref Lomovskaya et al. (2020b)
PAM4794 NMC-1 = system: PAM4794 NMC-1; design: method as in Lomovskaya et al. (2020b); settings: PAM4794, NMC-1, class A-CARB; ref Lomovskaya et al. (2020b)
PAM4880 L1 = system: PAM4880 L1; design: method as in Lomovskaya et al. (2020b); settings: PAM4880, L1, class B3; ref Lomovskaya et al. (2020b)
PAM4908 VEB-1 = system: PAM4908 VEB-1; design: method as in Lomovskaya et al. (2020b); settings: PAM4908, VEB-1, class A; ref Lomovskaya et al. (2020b)
Pseudomonas aeruginosa = system: Pseudomonas aeruginosa; design: method as in Lomovskaya et al. (2021); settings: ref Lomovskaya et al. (2021); for MIC50 / MIC90: challenge panel, QPX7728 at 8 μg/ml

Row | SMILES | MIC (PAM4883 GIM-1) [µg/mL] | MIC (PAM4910 VEB-2) [µg/mL] | MIC (PAM4198 IMP-15) [µg/mL] | MIC (PAM4874 SHV-12) [µg/mL] | MIC (PAM4676 BKC-1) [µg/mL] | MIC (PAM4884 ADC-181) [µg/mL] | MIC (PAM4822 CTX-M-27) [µg/mL] | MIC (PAM4878 TEM-10) [µg/mL] | MIC (PAM4689 KPC-3) [µg/mL] | MIC (PAM4798 VIM-2) [µg/mL] | MIC (PAM4881 VIM-7) [µg/mL] | MIC (PAM4745 P99) [µg/mL] | MIC (PAM4800 GES-19) [µg/mL] | MIC (PAM4846 OXA-9) [µg/mL] | MIC (PAM4885 SPM-1) [µg/mL] | MIC (PAM4938 VEB-9) [µg/mL] | MIC (PAM4825 MIR-1) [µg/mL] | MIC (PAM4869 PDC-1) [µg/mL] | MIC (PAM4179 NDM-1) [µg/mL] | MIC (PAM4217 OXA-48) [µg/mL] | also measured
1 | CC(C)(O/N=C(\C(=O)N[C@@H]1C(=O)N2C(C(=O)[O-])=C(C[n+]3ccccc3)CS[C@H]12)c1csc(N)n1)C(=O)O [Ceftazidime, ceftazidime] | >64 | >64 | 64 (≈ 117 µM) | >64 | 3 (≈ 5.49 µM) | 8 (≈ 14.6 µM) | 64 (≈ 117 µM) | >64 | >64 | 16 (≈ 29.3 µM) | 0.5 (≈ 0.915 µM) | 64 (≈ 117 µM) | >64 | 0.25 (≈ 0.457 µM) | >64 | 256 (≈ 468 µM) | 16 (≈ 29.3 µM) | 16 (≈ 29.3 µM) | >64 | 0.25 (≈ 0.457 µM) | MIC (PAM4794 NMC-1): 1 µg/mL (≈ 1.83 µM); MIC (PAM4880 L1): 64 µg/mL (≈ 117 µM); MIC (PAM4908 VEB-1): >64 µg/mL
2 | CCN1CCN(C(=O)N[C@@H](C(=O)N[C@@H]2C(=O)N3[C@@H]2SC(C)(C)[C@@H]3C(=O)O)c2ccccc2)C(=O)C1=O [Piperacillin, piperacillin] | >64 | 16 (≈ 30.9 µM) | 0.5 (≈ 0.966 µM) | >64 | 32 (≈ 61.8 µM) | 1 (≈ 1.93 µM) | >64 | 32 (≈ 61.8 µM) | >64 | 16 (≈ 30.9 µM) | 2 (≈ 3.86 µM) | 64 (≈ 124 µM) | 8 (≈ 15.5 µM) | 8 (≈ 15.5 µM) | 32 (≈ 61.8 µM) | 16 (≈ 30.9 µM) | 8 (≈ 15.5 µM) | >64 | 64 (≈ 124 µM) | 16 (≈ 30.9 µM) | % of isolates shifted by QPX7728 at or below breakpoint (Pseudomonas aeruginosa; challenge panel (N = 290), with QPX7728, 8 or 16 μg/ml for cefepime and piperacillin, respectively): 70.3%; MIC50 (Pseudomonas aeruginosa; All (N = 290)): >64 µg/mL; MIC90 (Pseudomonas aeruginosa; All (N = 290)): >64 µg/mL; MIC50 (Pseudomonas aeruginosa; MBL (N = 61)): >64 µg/mL; MIC90 (Pseudomonas aeruginosa; MBL (N = 61)): >64 µg/mL; MIC50 (Pseudomonas aeruginosa; No MBL (N = 229)): >64 µg/mL; MIC90 (Pseudomonas aeruginosa; No MBL (N = 229)): >64 µg/mL; MIC (PAM4794 NMC-1): 16 µg/mL (≈ 30.9 µM); MIC (PAM4880 L1): 32 µg/mL (≈ 61.8 µM); MIC (PAM4908 VEB-1): 8 µg/mL (≈ 15.5 µM)
